In the NIST ThermoML archive (doi:10.1016/j.jct.2008.07.005):

Assay: xn = mol fraction of the nth substance listed
Conditions: 98.93 kPa, Liquid

CC(O)CO (stereo not given) [1,2-propanediol] + O
mass density [kg/m3]
Conditions	283.15 K	288.15 K	293.15 K	298.15 K	303.15 K	308.15 K
x1 = 0.002	1000.28	999.66	998.73	997.56	996.13	994.48
x1 = 0.005	1001.15	1000.5	999.55	998.32	996.87	995.17
x1 = 0.01	1002.65	1001.93	1000.93	999.63	998.12	996.34
x1 = 0.019	1005.45	1004.9	1003.81	1002.37	1000.73	998.77
x1 = 0.03	1008.94	1007.94	1006.74	1005.17	1003.41	1001.32
x1 = 0.04	1012.38	1011.16	1009.69	1008.04	1006.07	1003.85
x1 = 0.05	1015.77	1014.38	1012.66	1010.8	1008.65	1006.42
x1 = 0.065	1020.67	1018.96	1016.94	1014.74	1012.36	1010.15
x1 = 0.08	1025.18	1023.18	1020.8	1018.36	1015.78	1013.54
x1 = 0.1	1030.57	1027.89	1025.18	1022.6	1019.88	1017.51
x1 = 0.125	1035.97	1032.58	1029.58	1027.01	1024.14	1021.52
x1 = 0.1526	1039.91	1036.53	1033.34	1030.86	1028.08	1024.73
x1 = 0.17	1041.79	1038.5	1035.11	1032.86	1030.11	1026.33
x1 = 0.18	1042.67	1039.47	1035.98	1033.9	1031.1	1027.06
x1 = 0.2	1043.92	1041	1037.19	1035.6	1032.73	1027.98
